Data published in the kinase profiling compilation of Christmann-Franck et al. (2016).

What was measured:
Assay in all cases: KINOMEscan competition binding
Settings in all cases: compound 10.0 µM
[1] = system: ABL1 (human), P00519 [H396P]
[2] = target: PKMYT1 (human) (UniProt Q99640)
[3] = target: NEK7 (human) (UniProt Q8TDX7)
[4] = target: EGFR (human) (UniProt P00533)
[5] = target: PAK1 (human) (UniProt Q13153)
[6] = target: CSNK2A2 (human) (UniProt P19784)
[7] = target: LTK (human) (UniProt P29376)
[8] = target: MAP3K11 (human) (UniProt Q16584)
MAP3K11 (human), sequence (Q16584 whole entry, looked up): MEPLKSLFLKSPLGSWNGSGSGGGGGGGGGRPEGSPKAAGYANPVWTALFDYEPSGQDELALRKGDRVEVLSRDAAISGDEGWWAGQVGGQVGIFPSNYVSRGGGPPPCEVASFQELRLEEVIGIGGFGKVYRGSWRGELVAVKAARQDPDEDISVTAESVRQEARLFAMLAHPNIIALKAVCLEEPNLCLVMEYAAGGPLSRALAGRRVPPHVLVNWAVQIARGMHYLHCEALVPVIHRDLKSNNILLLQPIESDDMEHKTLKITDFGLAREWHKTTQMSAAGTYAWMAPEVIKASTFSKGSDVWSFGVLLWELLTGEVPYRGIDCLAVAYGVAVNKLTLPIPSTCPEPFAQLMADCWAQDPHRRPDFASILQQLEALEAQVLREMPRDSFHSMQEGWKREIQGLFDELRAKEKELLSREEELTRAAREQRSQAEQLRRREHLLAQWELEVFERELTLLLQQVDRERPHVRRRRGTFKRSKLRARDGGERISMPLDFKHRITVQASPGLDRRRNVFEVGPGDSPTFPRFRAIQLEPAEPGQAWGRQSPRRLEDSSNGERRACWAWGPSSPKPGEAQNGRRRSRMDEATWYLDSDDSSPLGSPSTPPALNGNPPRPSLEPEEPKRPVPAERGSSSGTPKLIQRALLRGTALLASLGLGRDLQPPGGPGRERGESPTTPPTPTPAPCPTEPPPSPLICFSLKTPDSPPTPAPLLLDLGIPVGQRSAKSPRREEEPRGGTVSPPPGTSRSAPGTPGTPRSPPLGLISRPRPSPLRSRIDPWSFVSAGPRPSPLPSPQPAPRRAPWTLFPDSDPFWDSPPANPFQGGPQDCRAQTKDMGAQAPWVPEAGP

[9] = target: ALK (human) (UniProt Q9UM73)
[10] = target: MAPK6 (human) (UniProt Q16659)
[11] = target: CIT (human) (UniProt O14578)
CIT (human), sequence (O14578 whole entry, looked up): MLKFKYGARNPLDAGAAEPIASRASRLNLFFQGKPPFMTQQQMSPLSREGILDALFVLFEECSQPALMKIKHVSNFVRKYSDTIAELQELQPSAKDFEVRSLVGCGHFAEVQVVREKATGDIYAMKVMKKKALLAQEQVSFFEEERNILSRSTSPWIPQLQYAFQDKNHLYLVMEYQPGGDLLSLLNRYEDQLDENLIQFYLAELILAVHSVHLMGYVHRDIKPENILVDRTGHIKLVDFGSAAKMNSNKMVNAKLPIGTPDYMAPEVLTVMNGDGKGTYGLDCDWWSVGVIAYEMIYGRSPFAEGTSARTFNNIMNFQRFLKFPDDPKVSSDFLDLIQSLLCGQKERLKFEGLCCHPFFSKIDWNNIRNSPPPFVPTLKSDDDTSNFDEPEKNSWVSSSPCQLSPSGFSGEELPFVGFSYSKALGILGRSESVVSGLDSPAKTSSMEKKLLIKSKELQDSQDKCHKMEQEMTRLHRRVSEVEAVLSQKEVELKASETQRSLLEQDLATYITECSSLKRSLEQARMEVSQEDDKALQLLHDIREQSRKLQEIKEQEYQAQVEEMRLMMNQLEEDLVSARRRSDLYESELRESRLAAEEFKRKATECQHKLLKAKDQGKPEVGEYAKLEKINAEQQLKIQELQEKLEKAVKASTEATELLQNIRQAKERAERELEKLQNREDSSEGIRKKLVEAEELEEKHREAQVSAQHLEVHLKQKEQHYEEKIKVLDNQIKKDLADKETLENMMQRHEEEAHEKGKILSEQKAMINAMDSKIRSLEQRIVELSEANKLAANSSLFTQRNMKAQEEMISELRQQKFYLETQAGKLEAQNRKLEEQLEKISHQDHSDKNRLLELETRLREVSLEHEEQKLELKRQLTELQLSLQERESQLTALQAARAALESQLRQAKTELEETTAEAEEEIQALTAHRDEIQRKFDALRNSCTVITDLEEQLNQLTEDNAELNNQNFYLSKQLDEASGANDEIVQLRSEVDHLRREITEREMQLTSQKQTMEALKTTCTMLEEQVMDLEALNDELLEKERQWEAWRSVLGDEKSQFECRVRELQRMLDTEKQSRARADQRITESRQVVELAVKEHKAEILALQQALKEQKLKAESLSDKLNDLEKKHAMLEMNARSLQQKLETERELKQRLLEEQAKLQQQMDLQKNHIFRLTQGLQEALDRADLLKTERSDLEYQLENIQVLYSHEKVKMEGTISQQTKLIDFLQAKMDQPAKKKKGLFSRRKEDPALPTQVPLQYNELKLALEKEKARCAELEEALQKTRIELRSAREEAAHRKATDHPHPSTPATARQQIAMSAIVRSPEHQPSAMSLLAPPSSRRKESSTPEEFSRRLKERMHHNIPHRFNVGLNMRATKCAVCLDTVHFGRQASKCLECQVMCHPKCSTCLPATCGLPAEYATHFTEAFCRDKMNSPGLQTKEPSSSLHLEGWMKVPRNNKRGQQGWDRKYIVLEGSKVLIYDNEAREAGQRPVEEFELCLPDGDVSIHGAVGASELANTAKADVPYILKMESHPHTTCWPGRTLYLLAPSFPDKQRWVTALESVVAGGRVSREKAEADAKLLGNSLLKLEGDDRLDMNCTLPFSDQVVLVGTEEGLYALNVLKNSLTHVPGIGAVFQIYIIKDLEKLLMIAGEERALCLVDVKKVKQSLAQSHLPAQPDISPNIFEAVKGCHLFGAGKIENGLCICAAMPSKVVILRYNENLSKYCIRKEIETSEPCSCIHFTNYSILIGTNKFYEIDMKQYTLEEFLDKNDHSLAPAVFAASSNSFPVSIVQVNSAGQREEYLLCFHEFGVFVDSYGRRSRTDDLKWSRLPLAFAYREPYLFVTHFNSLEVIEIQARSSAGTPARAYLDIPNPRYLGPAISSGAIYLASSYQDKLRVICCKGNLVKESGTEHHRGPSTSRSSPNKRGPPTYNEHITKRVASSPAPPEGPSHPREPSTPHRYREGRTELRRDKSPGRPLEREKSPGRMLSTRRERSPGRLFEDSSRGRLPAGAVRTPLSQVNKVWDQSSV

[12] = target: RPS6KA5 KD2 (human) (UniProt O75582)
[13] = target: CDC2L2 (human) (UniProt Q9UQ88)
[14] = target: NTRK1 (human) (UniProt P04629)
[15] = target: SYK (human) (UniProt P43405)
[16] = target: ERBB4 (human) (UniProt Q15303)
[17] = target: STK4 (human) (UniProt Q13043)
[18] = target: ABL1 (human) (UniProt P00519)
[19] = target: CDC42BPG (human) (UniProt Q6DT37)
[20] = target: MAPK11 (human) (UniProt Q15759)
MAPK11 (human), sequence (Q15759 whole entry, looked up): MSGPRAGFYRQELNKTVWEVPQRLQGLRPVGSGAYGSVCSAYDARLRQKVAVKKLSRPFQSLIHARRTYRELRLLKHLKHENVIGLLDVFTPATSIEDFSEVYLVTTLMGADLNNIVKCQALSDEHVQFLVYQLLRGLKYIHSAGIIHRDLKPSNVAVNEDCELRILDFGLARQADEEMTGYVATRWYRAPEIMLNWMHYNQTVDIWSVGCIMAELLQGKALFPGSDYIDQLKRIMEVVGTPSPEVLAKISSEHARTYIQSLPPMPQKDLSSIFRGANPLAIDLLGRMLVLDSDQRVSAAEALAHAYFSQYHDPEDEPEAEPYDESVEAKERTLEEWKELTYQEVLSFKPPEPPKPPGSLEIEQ

[21] = target: CDK7 (human) (UniProt P50613)
[22] = target: CDK15 (human) (UniProt Q96Q40)
[23] = target: CSNK2A1 (human) (UniProt P68400)
CSNK2A1 (human), sequence (P68400 whole entry, looked up): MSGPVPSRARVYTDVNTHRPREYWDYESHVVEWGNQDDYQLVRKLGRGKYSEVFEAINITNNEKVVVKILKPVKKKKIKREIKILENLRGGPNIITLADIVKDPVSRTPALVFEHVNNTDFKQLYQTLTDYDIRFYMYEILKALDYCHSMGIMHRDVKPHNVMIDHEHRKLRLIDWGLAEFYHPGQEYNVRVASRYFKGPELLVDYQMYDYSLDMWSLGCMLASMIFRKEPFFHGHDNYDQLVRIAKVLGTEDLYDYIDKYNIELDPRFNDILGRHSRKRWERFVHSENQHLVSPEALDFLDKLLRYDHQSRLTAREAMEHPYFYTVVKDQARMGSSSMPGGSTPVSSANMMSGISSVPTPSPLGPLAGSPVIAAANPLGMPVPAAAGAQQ

[24] = target: STK17B (human) (UniProt O94768)
[25] = target: MAPKAPK5 (human) (UniProt Q8IW41)
[26] = target: NEK6 (human) (UniProt Q9HC98)
[27] = target: FLT1 (human) (UniProt P17948)
[28] = target: JAK1 JH2 pseudokinase (human) (UniProt P23458)
[29] = target: RPS6KA1 KD1 (human) (UniProt Q15418)
[30] = target: RPS6KA4 KD1 (human) (UniProt O75676)
[31] = target: MAPK15 (human) (UniProt Q8TD08)
[32] = target: JAK2 JH1 catalytic (human) (UniProt O60674)
[33] = target: NTRK3 (human) (UniProt Q16288)
NTRK3 (human), sequence (Q16288 whole entry, looked up): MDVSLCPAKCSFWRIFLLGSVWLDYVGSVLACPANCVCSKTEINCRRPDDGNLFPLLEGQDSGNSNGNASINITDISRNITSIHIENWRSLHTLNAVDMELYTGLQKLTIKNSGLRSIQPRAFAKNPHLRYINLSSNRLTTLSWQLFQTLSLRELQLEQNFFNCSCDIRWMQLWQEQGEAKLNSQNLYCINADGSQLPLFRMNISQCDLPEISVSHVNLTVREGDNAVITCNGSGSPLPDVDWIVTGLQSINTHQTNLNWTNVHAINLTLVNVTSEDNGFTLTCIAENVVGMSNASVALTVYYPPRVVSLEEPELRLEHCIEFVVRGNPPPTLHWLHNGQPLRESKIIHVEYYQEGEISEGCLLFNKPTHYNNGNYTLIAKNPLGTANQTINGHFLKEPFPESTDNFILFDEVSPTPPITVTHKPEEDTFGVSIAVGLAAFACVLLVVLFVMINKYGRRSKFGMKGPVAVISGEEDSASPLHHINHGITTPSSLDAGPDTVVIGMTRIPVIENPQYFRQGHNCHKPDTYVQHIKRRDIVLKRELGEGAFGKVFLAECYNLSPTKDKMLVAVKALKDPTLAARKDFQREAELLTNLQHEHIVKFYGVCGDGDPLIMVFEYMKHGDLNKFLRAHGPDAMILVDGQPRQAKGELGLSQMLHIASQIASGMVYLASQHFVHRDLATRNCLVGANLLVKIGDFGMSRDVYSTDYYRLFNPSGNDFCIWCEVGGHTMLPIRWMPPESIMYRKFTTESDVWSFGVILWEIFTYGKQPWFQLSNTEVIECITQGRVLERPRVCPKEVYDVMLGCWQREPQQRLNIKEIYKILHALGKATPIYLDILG

[34] = target: MAPK3 (human) (UniProt P27361)
[35] = target: ERBB3 (human) (UniProt P21860)
[36] = target: PLK2 (human) (UniProt Q9NYY3)
[37] = system: EGFR (human), P00533 [T790M]

PAK1 (human), sequence (Q13153 whole entry, looked up): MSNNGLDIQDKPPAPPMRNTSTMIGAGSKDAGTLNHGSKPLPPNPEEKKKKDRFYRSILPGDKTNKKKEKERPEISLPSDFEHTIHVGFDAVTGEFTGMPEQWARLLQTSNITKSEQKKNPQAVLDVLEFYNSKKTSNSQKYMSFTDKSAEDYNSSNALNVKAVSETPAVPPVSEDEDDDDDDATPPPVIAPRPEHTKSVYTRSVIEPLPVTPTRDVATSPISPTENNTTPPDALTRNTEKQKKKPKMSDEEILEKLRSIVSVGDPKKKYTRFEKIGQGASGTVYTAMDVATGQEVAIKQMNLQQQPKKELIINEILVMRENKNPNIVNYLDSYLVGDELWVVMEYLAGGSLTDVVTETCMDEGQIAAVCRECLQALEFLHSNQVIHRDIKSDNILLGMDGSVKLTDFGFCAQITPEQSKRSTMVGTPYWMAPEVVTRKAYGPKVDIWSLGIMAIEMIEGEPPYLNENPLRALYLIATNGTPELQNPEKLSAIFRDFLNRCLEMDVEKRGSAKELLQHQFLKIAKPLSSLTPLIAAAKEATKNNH

Row | Compound | kinase still bound, per cent of control [2] [%] | kinase still bound, per cent of control [3] [%] | kinase still bound, per cent of control [5] [%] | kinase still bound, per cent of control [6] [%] | kinase still bound, per cent of control [7] [%] | kinase still bound, per cent of control [8] [%] | kinase still bound, per cent of control [9] [%] | kinase still bound, per cent of control [10] [%] | kinase still bound, per cent of control [12] [%] | kinase still bound, per cent of control [13] [%] | kinase still bound, per cent of control [14] [%] | kinase still bound, per cent of control [15] [%] | kinase still bound, per cent of control [16] [%] | kinase still bound, per cent of control [17] [%] | kinase still bound, per cent of control [18] [%] | kinase still bound, per cent of control [19] [%] | kinase still bound, per cent of control [20] [%] | kinase still bound, per cent of control [23] [%] | kinase still bound, per cent of control [24] [%] | kinase still bound, per cent of control [25] [%] | also measured
1 | CNC(=O)c1ccc(Nc2cc(Nc3ccccc3S(=O)(=O)C(C)C)c3cc[nH]c3n2)nc1 | 100 | 100 | 100 | 18 | 0 | 7.2 | 1.8 | 100 | 100 | 100 | 0.75 | 2.6 | 100 | 4.2 | 11 | 100 | 100 | 4.4 | 33 | 100 | kinase still bound, per cent of control [1]: 10%; kinase still bound, per cent of control [4]: 100%; kinase still bound, per cent of control [11]: 100%; kinase still bound, per cent of control [21]: 1.8%; kinase still bound, per cent of control [22]: 18%; kinase still bound, per cent of control [26]: 100%; kinase still bound, per cent of control [27]: 100%; kinase still bound, per cent of control [28]: 0.05%; kinase still bound, per cent of control [29]: 0.8%; kinase still bound, per cent of control [30]: 2.2%; kinase still bound, per cent of control [31]: 8%; kinase still bound, per cent of control [32]: 1.6%; kinase still bound, per cent of control [33]: 0.4%; kinase still bound, per cent of control [34]: 100%
2 | Cc1n[nH]c2ccc(-c3cncc(OC[C@@H](N)Cc4c[nH]c5ccccc45)c3)cc12 | 100 | 100 | 6.2 | 13 | 100 | 100 | 100 | 100 | 17 | 100 | 100 | 100 | 100 | 100 | 100 | 0.8 | 100 | 17 | 20 | 100 | kinase still bound, per cent of control [1]: 100%; kinase still bound, per cent of control [11]: 0.2%; kinase still bound, per cent of control [21]: 0.3%; kinase still bound, per cent of control [22]: 16%; kinase still bound, per cent of control [26]: 100%; kinase still bound, per cent of control [27]: 100%; kinase still bound, per cent of control [28]: 100%; kinase still bound, per cent of control [29]: 100%; kinase still bound, per cent of control [30]: 100%; kinase still bound, per cent of control [31]: 0%; kinase still bound, per cent of control [32]: 100%; kinase still bound, per cent of control [33]: 100%; kinase still bound, per cent of control [34]: 100%
3 | C=CC(=O)Nc1ccc(CN(C(=O)Nc2c(Cl)c(OC)cc(OC)c2Cl)c2cc(Nc3ccc(N4CCN(C)CC4)cc3)ncn2)cc1 | 100 | 100 | 100 | 100 | 27 | 10 | 100 | 100 | 100 | 100 | 100 | 100 | 2.2 | 100 | 16 | 100 | 100 | 100 | 100 | 100 | kinase still bound, per cent of control [1]: 20%; kinase still bound, per cent of control [4]: 0.35%; kinase still bound, per cent of control [11]: 100%; kinase still bound, per cent of control [21]: 100%; kinase still bound, per cent of control [22]: 100%; kinase still bound, per cent of control [26]: 100%; kinase still bound, per cent of control [27]: 0.3%; kinase still bound, per cent of control [28]: 100%; kinase still bound, per cent of control [29]: 100%; kinase still bound, per cent of control [30]: 100%; kinase still bound, per cent of control [31]: 100%; kinase still bound, per cent of control [32]: 100%; kinase still bound, per cent of control [33]: 100%; kinase still bound, per cent of control [34]: 100%
4 | COc1cc2ncn(-c3cc(OCc4ccccc4C(F)(F)F)c(C(N)=O)s3)c2cc1OC | 60 | 74 | 100 | 17 | 100 | 81 | 100 | 64 | 76 | 99 | 78 | 72 | 80 | 56 | 60 | 64 | 88 | 30 | 85 | 91 | kinase still bound, per cent of control [35]: 100%; kinase still bound, per cent of control [36]: 0.2%; kinase still bound, per cent of control [37]: 100%; kinase still bound, per cent of control [26]: 87%; kinase still bound, per cent of control [27]: 58%; kinase still bound, per cent of control [28]: 100%; kinase still bound, per cent of control [29]: 96%; kinase still bound, per cent of control [30]: 69%; kinase still bound, per cent of control [31]: 46%; kinase still bound, per cent of control [32]: 48%; kinase still bound, per cent of control [33]: 93%; kinase still bound, per cent of control [34]: 100%
